Source: publication PMC10706425, “Enhancing the Antimicrobial Properties of Peptides through Cell-Penetrating Peptide Conjugation: A Comprehensive Assessment” (International Journal of Molecular Sciences, 2023)
Where two headings read alike, the source gives them in different places.

Experiments:
MRSA (ATCC 43300 strain) = assay: Antibacterial activity in liquid medium; assay type: cell-based, Methicillin-resistant Staphylococcus aureus; conditions: ATCC 43300 strain; Mueller–Hinton broth, 37 °C, 2% DMSO
Description: (§1) Two S. aureus strains were used: a susceptible strain 209P and a clinical isolate strain 129B (resistant to antibiotics: benzylpenicillin, clindamycin, erythromycin, oxacillin, sulfamethoxazole, and vancomycin). Two MRSA strains were included: a susceptible strain ATCC 43300 (resistant to antibiotics: methicillin, oxacillin (beta-lactam antibiotics), ampicillin (https://www.atcc.org/products/43300 (accessed on 11 November 2023)) and a clinical isolate strain SA 180 (resistant to antibiotics: benzylpenicillin and oxacillin (beta-lactam antibiotics), ciprofloxacin, clindamycin, erythromycin, levomycetin, sulfamethoxazole, and vancomycin). One B. cereus was used: a susceptible strain, IP 5832. Two P. aeruginosa strains were included: a susceptible strain, ATCC 28753, and a resistant strain, 2943. Two E. coli strains were used: a susceptible strain, K12, and a susceptible strain, MG1655.
(§2) Determination of the growth for the bacteria S. aureus strain 209P, MRSA strain ATCC 43300, B. cereus strain IP 5832, P. aeruginosa strain ATCC 28753, and E. coli strain K12 was performed using Mueller–Hinton Broth (MHB) (Sigma-Aldrich, St. Louis, MO, USA). Bacteria of S. aureus (strain 129B) and MRSA (strain SA 180-F) were grown on the brain-heart infusion (BHI) medium, and bacteria of P. aeruginosa (strain 2943) and E. coli (strain MG1655) were grown on the LB medium. The preparation and co-incubation of peptides with bacteria were carried out as described previously. The samples were grown at 37 °C.

bacteria [1] = assay: Antibacterial activity of amyloidogenic fragments alone (bacteria not given); assay type: cell-based; conditions: Table 2 and Table S1
S. aureus (209P strain) = assay: Antibacterial activity in liquid medium; assay type: cell-based, Staphylococcus aureus; conditions: 209P strain; Mueller–Hinton broth, 37 °C, 2% DMSO
Description: as §1, §2

E. coli (K12 strain) = assay: Antibacterial activity in liquid medium; assay type: cell-based, Escherichia coli; conditions: K12 strain; Mueller–Hinton broth, 37 °C, 2% DMSO
Description: as §1, §2

bacteria [2] = conditions: cited from earlier work
Description: Generally, the mechanisms by which AMPs act against bacteria depend on the properties of the bacterial cell wall. Gram-positive bacteria have a thick peptidoglycan layer, while Gram-negative bacteria have an outer membrane and a thinner peptidoglycan layer, which can impact the effectiveness of different antimicrobial strategies. […] If the peptide contained only the Antp fragment, then, in general, its antimicrobial activity was lower com ...

Row | Sequence | Peptide Activity in Liquid Medium after 15 h of Incubation (Gentamicin as Positive Control) (MRSA (ATCC 43300 strain)) [µM] | Concentration with antibacterial activity, amyloidogenic fragment alone (bacteria [1]) [µM] | Peptide Activity in Liquid Medium after 15 h of Incubation (Gentamicin as Positive Control) (S. aureus (209P strain)) [µM] | Peptide Activity in Liquid Medium after 15 h of Incubation (Gentamicin as Positive Control) (E. coli (K12 strain)) [µM] | Concentration with antibacterial activity, amyloidogenic fragment alone (bacteria [2]) [µM]
1 | ITDFGIFIGL [I10L^P] | 913 | 913 | 913 | 913 | –
2 | VTDFGVFVEI [Amyloidogenic fragment from S1 T. thermophilus] | – | – | – | – | 913
